The values below come from US11034650B2, “Compounds useful for treating a Mannheimia haemolytica or Histophilus somni infection” (Intervet Inc., priority 2016, dated 2021).

Converted amounts (≈) assume the structure as drawn.

The first experiment deals with Mannheimia haemolytica MH 13093 (XB0472-6014.1, BRD field isolate). In words: MIC, broth-microdilution (CLSI VET01-A4), strain MH 13093. It counts as cell-based. To be noted: Mannheimia haemolytica strain MH 13093, broth-microdilution; unit assumed. The procedure, abridged: (§1)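 MIC recorded as the lowest drug level giving no growth visible to the naked eye, from two-fold serial dilutions. Interpretation followed VET01-S3.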
Take `CC(C)[C@H](NC(=O)c1ccc(C#Cc2ccc(CNCc3nccs3)cc2)cc1)C(=O)NO` [Compound 199]: the MIC MH 13093 worked out at 0.4 µg/mL (≈ 0.865 µM).
The same measure, in the same setting: with `CC(C)([C@H](NC(=O)c1ccc(C#Cc2ccc(CNCc3ccncc3)nc2)cc1)C(=O)NO)S(C)(=O)=O` [Compound 371] the figure was 3.1 µg/mL (≈ 5.79 µM); with `COCCNCc1ccc(C#Cc2ccc(C(=O)N[C@H](C(=O)NO)C(C)(C)SC)cc2)cn1` [Compound 337], 3.1 µg/mL (≈ 6.59 µM).
Same read-out and setting: with `CSC(C)(C)[C@H](NC(=O)c1ccc(C#Cc2ccc(CNCc3nccs3)s2)cc1)C(=O)NO` [Compound 365] the figure was 1.6 µg/mL (≈ 3.11 µM).

In a further experiment the test system is Pasteurella multocida PM 6267 (P 2225 (L386), reference strain, mouse infection strain). In words: MIC, broth-microdilution (CLSI VET01-A4), strain PM 6267. In kind it is cell-based. To be noted: Pasteurella multocida strain PM 6267, broth-microdilution; unit assumed. A digest of the protocol:
as §1
Compound `CC(C)[C@H](NC(=O)c1ccc(C#Cc2ccc(CNCc3nccs3)cc2)cc1)C(=O)NO` [Compound 199] gave an MIC PM 6267 of at most 0.1 µg/mL.
For the compound `CC(C)([C@H](NC(=O)c1ccc(C#Cc2ccc(CNCc3ccncc3)nc2)cc1)C(=O)NO)S(C)(=O)=O` [Compound 371], the MIC PM 6267 was determined as 0.2 µg/mL (≈ 0.373 µM).
The same measure, in the same setting: with `COCCNCc1ccc(C#Cc2ccc(C(=O)N[C@H](C(=O)NO)C(C)(C)SC)cc2)cn1` [Compound 337] the figure was 3.1 µg/mL (≈ 6.59 µM).
Still for that read-out and setting: with `CSC(C)(C)[C@H](NC(=O)c1ccc(C#Cc2ccc(CNCc3nccs3)s2)cc1)C(=O)NO` [Compound 365] the figure was 0.4 µg/mL (≈ 0.777 µM).

A further experiment has as its system Mannheimia haemolytica MH 12587 (1071, BRD field isolate, macrolide-resistance: erm+, E+). In words: MIC, broth-microdilution (CLSI VET01-A4), strain MH 12587. In kind it is cell-based. To be noted: Mannheimia haemolytica strain MH 12587, broth-microdilution; unit assumed. The procedure, abridged: as §1
In general terms: Broth dilution looks for growth in wells or tubes with falling amounts of substance.
Take `CC(C)[C@H](NC(=O)c1ccc(C#Cc2ccc(CNCc3nccs3)cc2)cc1)C(=O)NO` [Compound 199]: the MIC MH 12587 turned out to be 0.4 µg/mL (≈ 0.865 µM).
On the same count and under the same terms, the same measure for `CC(C)([C@H](NC(=O)c1ccc(C#Cc2ccc(CNCc3ccncc3)nc2)cc1)C(=O)NO)S(C)(=O)=O` [Compound 371]: 3.1 µg/mL (≈ 5.79 µM); for `COCCNCc1ccc(C#Cc2ccc(C(=O)N[C@H](C(=O)NO)C(C)(C)SC)cc2)cn1` [Compound 337]: 6.3 µg/mL (≈ 13.4 µM); for `CSC(C)(C)[C@H](NC(=O)c1ccc(C#Cc2ccc(CNCc3nccs3)s2)cc1)C(=O)NO` [Compound 365]: 3.1 µg/mL (≈ 6.02 µM).

The test system of another experiment is Mannheimia haemolytica MH 13065 (XB0446-6003.9, BRD field isolate). The experiment is described as follows: MIC, broth-microdilution (CLSI VET01-A4), strain MH 13065. It counts as cell-based. The conditions noted are these: Mannheimia haemolytica strain MH 13065, broth-microdilution; unit assumed. The procedure, abridged: as §1
As to `CC(C)[C@H](NC(=O)c1ccc(C#Cc2ccc(CNCc3nccs3)cc2)cc1)C(=O)NO` [Compound 199], the MIC MH 13065 was 0.2 µg/mL (≈ 0.432 µM).
In turn, `CC(C)([C@H](NC(=O)c1ccc(C#Cc2ccc(CNCc3ccncc3)nc2)cc1)C(=O)NO)S(C)(=O)=O` [Compound 371] registered an MIC MH 13065 of 1.6 µg/mL (≈ 2.99 µM).
Still for that read-out and setting: with `COCCNCc1ccc(C#Cc2ccc(C(=O)N[C@H](C(=O)NO)C(C)(C)SC)cc2)cn1` [Compound 337] the figure was 6.3 µg/mL (≈ 13.4 µM); with `CSC(C)(C)[C@H](NC(=O)c1ccc(C#Cc2ccc(CNCc3nccs3)s2)cc1)C(=O)NO` [Compound 365], 1.6 µg/mL (≈ 3.11 µM).

A further experiment relates to Mannheimia haemolytica MH 6357 (M7/2, reference strain, cattle infection strain). The experiment is described as follows: MIC, broth-microdilution (CLSI VET01-A4), strain MH 6357. In kind it is cell-based. The conditions noted are these: Mannheimia haemolytica strain MH 6357, broth-microdilution; unit assumed. A digest of the protocol: as §1
For `CC(C)[C@H](NC(=O)c1ccc(C#Cc2ccc(CNCc3nccs3)cc2)cc1)C(=O)NO` [Compound 199], the MIC MH 6357 was 0.2 µg/mL (≈ 0.432 µM).
For the compound `CC(C)([C@H](NC(=O)c1ccc(C#Cc2ccc(CNCc3ccncc3)nc2)cc1)C(=O)NO)S(C)(=O)=O` [Compound 371], the MIC MH 6357 came out at 1.6 µg/mL (≈ 2.99 µM).
Consider `COCCNCc1ccc(C#Cc2ccc(C(=O)N[C@H](C(=O)NO)C(C)(C)SC)cc2)cn1` [Compound 337], for which the MIC MH 6357 came out at 3.1 µg/mL (≈ 6.59 µM).
As to `CSC(C)(C)[C@H](NC(=O)c1ccc(C#Cc2ccc(CNCc3nccs3)s2)cc1)C(=O)NO` [Compound 365], the MIC MH 6357 was determined as 0.8 µg/mL (≈ 1.55 µM).

The test system of another experiment is Pasteurella multocida PM 6391 (ATCC 43137, reference strain). The experiment is described as follows: MIC, broth-microdilution (CLSI VET01-A4), strain PM 6391. It counts as cell-based. The conditions noted are these: Pasteurella multocida strain PM 6391, broth-microdilution; unit assumed. A digest of the protocol:
as §1
In turn, `CC(C)[C@H](NC(=O)c1ccc(C#Cc2ccc(CNCc3nccs3)cc2)cc1)C(=O)NO` [Compound 199] displayed an MIC PM 6391 of at most 0.1 µg/mL.
Take `CC(C)([C@H](NC(=O)c1ccc(C#Cc2ccc(CNCc3ccncc3)nc2)cc1)C(=O)NO)S(C)(=O)=O` [Compound 371]: the MIC PM 6391 came out at 0.2 µg/mL (≈ 0.373 µM).
On to `COCCNCc1ccc(C#Cc2ccc(C(=O)N[C@H](C(=O)NO)C(C)(C)SC)cc2)cn1` [Compound 337], for which the MIC PM 6391 turned out to be 1.6 µg/mL (≈ 3.4 µM).
On the same count and under the same terms, the same measure for `CSC(C)(C)[C@H](NC(=O)c1ccc(C#Cc2ccc(CNCc3nccs3)s2)cc1)C(=O)NO` [Compound 365]: 0.4 µg/mL (≈ 0.777 µM).

The subject of the next experiment is Mannheimia haemolytica MH 6374 (ATCC 33396, reference strain). The experiment is described as follows: MIC, broth-microdilution (CLSI VET01-A4), strain MH 6374. It counts as cell-based. The conditions noted are these: Mannheimia haemolytica strain MH 6374, broth-microdilution; unit assumed. The procedure, abridged: as §1
With `CC(C)[C@H](NC(=O)c1ccc(C#Cc2ccc(CNCc3nccs3)cc2)cc1)C(=O)NO` [Compound 199], the MIC MH 6374 is 0.4 µg/mL (≈ 0.865 µM).
`CC(C)([C@H](NC(=O)c1ccc(C#Cc2ccc(CNCc3ccncc3)nc2)cc1)C(=O)NO)S(C)(=O)=O` [Compound 371] showed an MIC MH 6374 of 1.6 µg/mL (≈ 2.99 µM).
The same measure, in the same setting: with `COCCNCc1ccc(C#Cc2ccc(C(=O)N[C@H](C(=O)NO)C(C)(C)SC)cc2)cn1` [Compound 337] the figure was 3.1 µg/mL (≈ 6.59 µM).
In turn, `CSC(C)(C)[C@H](NC(=O)c1ccc(C#Cc2ccc(CNCc3nccs3)s2)cc1)C(=O)NO` [Compound 365] came in with an MIC MH 6374 of 0.8 µg/mL (≈ 1.55 µM).

For the next experiment, the system named is Pasteurella multocida PM 10775 (080130003051, BRD field isolate). In words: MIC, broth-microdilution (CLSI VET01-A4), strain PM 10775. In kind it is cell-based. The conditions noted are these: Pasteurella multocida strain PM 10775, broth-microdilution; unit assumed. The procedure, abridged: as §1
The compound `CC(C)[C@H](NC(=O)c1ccc(C#Cc2ccc(CNCc3nccs3)cc2)cc1)C(=O)NO` [Compound 199] yielded an MIC PM 10775 of at most 0.1 µg/mL.
Compound `CC(C)([C@H](NC(=O)c1ccc(C#Cc2ccc(CNCc3ccncc3)nc2)cc1)C(=O)NO)S(C)(=O)=O` [Compound 371] yielded an MIC PM 10775 of at most 0.1 µg/mL.
The same measure, in the same setting: the same measure for `COCCNCc1ccc(C#Cc2ccc(C(=O)N[C@H](C(=O)NO)C(C)(C)SC)cc2)cn1` [Compound 337]: 0.2 µg/mL (≈ 0.425 µM); for `CSC(C)(C)[C@H](NC(=O)c1ccc(C#Cc2ccc(CNCc3nccs3)s2)cc1)C(=O)NO` [Compound 365]: at most 0.1 µg/mL.

Another experiment relates to Pasteurella multocida PM 12080 (IV102277-0093, BRD field isolate). In words: MIC, broth-microdilution (CLSI VET01-A4), strain PM 12080. In kind it is cell-based. The conditions noted are these: Pasteurella multocida strain PM 12080, broth-microdilution; unit assumed. The procedure, abridged:
as §1
Consider `CC(C)[C@H](NC(=O)c1ccc(C#Cc2ccc(CNCc3nccs3)cc2)cc1)C(=O)NO` [Compound 199], for which the MIC PM 12080 was at most 0.1 µg/mL.
`CC(C)([C@H](NC(=O)c1ccc(C#Cc2ccc(CNCc3ccncc3)nc2)cc1)C(=O)NO)S(C)(=O)=O` [Compound 371] displayed an MIC PM 12080 of 0.2 µg/mL (≈ 0.373 µM).
Same read-out and setting: the same measure for `COCCNCc1ccc(C#Cc2ccc(C(=O)N[C@H](C(=O)NO)C(C)(C)SC)cc2)cn1` [Compound 337]: 0.8 µg/mL (≈ 1.7 µM); for `CSC(C)(C)[C@H](NC(=O)c1ccc(C#Cc2ccc(CNCc3nccs3)s2)cc1)C(=O)NO` [Compound 365]: at most 0.1 µg/mL.

The subject of another experiment is Mannheimia haemolytica MH 10720 (154, BRD field isolate). The experiment is described as follows: MIC, broth-microdilution (CLSI VET01-A4), strain MH 10720. The conditions noted are these: Mannheimia haemolytica strain MH 10720, broth-microdilution; unit assumed. In kind it is cell-based. The procedure, abridged:
as §1
`CC(C)[C@H](NC(=O)c1ccc(C#Cc2ccc(CNCc3nccs3)cc2)cc1)C(=O)NO` [Compound 199]: the MIC MH 10720 was at most 0.1 µg/mL.
`CC(C)([C@H](NC(=O)c1ccc(C#Cc2ccc(CNCc3ccncc3)nc2)cc1)C(=O)NO)S(C)(=O)=O` [Compound 371] had an MIC MH 10720 of 0.8 µg/mL (≈ 1.49 µM).
For the compound `COCCNCc1ccc(C#Cc2ccc(C(=O)N[C@H](C(=O)NO)C(C)(C)SC)cc2)cn1` [Compound 337], the MIC MH 10720 amounted to 0.8 µg/mL (≈ 1.7 µM).
Still for that read-out and setting: the same measure for `CSC(C)(C)[C@H](NC(=O)c1ccc(C#Cc2ccc(CNCc3nccs3)s2)cc1)C(=O)NO` [Compound 365]: 0.2 µg/mL (≈ 0.389 µM).
